From US20230102554A1 (GB002, INC., priority 2019, published 2023)

Experiments:
[1] = biological target: T1, Human PDGFRα, cytoplasmic domain (GST-PDGFRα) (Homo sapiens, UniProt P16234); test: Human PDGFRα biochemical inhibition assay (off-chip Mobility Shift Assay)
T1 construct: made in house

[2] = biological target: T2, Human PDGFRβ, cytoplasmic domain (GST-PDGFRβ) (Homo sapiens, UniProt P09619); test: Human PDGFRβ biochemical inhibition assay (off-chip Mobility Shift Assay)
T2 construct: made in house
Experimental: Human PDGFRβ Biochemical Inhibition Assay
The compounds described herein were tested for the ability to inhibit activity of PDGFRβ which was achieved via use of an off-chip Mobility Shift Assay (MSA). Human PDGFRβ, cytoplasmic domain [557-1106 (end) amino acids of accession number NP_002600.1 (SEQ ID NO: 3)] was expressed as N-terminal GST-fusion protein (88 kDa) using baculovirus expression system (SEQ ID NO: 4). GST-PDGFRβ was purified by using glutathione sepharose chromatography. Test compounds were dissolved in and diluted with dimethylsulfoxide (DMSO) to achieve 1 mM concentration. Then the solution was further diluted 25-fold with assay buffer to make the final test compound solution. The reference compound, Staurosporine, used as the assay positive control was prepared similarly. The 4× compound solution/substrate (CSKtide, 1000 nM)/ATP (Km ATP)/Mg Metal (5 mM) was prepared with kit buffer (20 mM HEPES, 0.01% Triton X-100, 5 mM DTT, pH 7.5), and 2× kinase solution was prepared with assay buffer (20 mM HEPES, 0.01% Triton X-100, 1 mM DTT, pH 7.5). The 5 μL of 4× compound solution, […] of 4× Substrate/ATP/Metal solution, and […] of 2× kinase solution were mixed and incubated in a well of polypropylene 384 well microplate for 1 hour at room temperature. […] of Termination Buffer (QuickScout Screening Assist MSA; Carna Biosciences) was added to the well. The reaction mixture was applied to LabChip™ system (Perkin Elmer), and the product and substrate peptide peaks were separated and quantitated. The kinase reaction was evaluated by the product ratio calculated from peak heights of product(P) and substrate(S) peptides (P/(P+S)). The readout value of reaction control (complete reaction mixture) was set as a 0% inhibition, and the readout value of background (Enzyme(−)) was set as a 100% inhibition, then the percent inhibition of each test solution was calculated.
With respect to PDGFRβ activity: “+++” denotes an IC50 of less than 300 nM; “++” denotes an IC50 of from 300 nM to less than 1000 nM; and “+” denotes an IC50 of 1000 nM or more.

T1 sequence (P16234 550-1089 T674I): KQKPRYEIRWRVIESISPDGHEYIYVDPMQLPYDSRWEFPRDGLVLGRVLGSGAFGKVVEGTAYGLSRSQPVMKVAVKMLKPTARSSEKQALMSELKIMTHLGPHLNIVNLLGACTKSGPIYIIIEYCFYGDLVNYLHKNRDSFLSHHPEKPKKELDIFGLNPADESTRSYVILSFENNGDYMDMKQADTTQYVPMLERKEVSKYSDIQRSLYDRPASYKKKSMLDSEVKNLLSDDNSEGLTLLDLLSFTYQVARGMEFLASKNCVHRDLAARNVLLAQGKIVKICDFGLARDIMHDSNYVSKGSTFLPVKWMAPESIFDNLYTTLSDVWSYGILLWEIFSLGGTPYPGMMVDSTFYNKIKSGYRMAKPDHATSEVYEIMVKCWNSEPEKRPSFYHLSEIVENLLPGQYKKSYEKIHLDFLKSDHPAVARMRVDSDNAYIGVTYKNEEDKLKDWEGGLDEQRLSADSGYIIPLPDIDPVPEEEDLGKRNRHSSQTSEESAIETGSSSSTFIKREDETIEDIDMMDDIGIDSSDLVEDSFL
T2 sequence (P09619 with tags, fused parts or gaps): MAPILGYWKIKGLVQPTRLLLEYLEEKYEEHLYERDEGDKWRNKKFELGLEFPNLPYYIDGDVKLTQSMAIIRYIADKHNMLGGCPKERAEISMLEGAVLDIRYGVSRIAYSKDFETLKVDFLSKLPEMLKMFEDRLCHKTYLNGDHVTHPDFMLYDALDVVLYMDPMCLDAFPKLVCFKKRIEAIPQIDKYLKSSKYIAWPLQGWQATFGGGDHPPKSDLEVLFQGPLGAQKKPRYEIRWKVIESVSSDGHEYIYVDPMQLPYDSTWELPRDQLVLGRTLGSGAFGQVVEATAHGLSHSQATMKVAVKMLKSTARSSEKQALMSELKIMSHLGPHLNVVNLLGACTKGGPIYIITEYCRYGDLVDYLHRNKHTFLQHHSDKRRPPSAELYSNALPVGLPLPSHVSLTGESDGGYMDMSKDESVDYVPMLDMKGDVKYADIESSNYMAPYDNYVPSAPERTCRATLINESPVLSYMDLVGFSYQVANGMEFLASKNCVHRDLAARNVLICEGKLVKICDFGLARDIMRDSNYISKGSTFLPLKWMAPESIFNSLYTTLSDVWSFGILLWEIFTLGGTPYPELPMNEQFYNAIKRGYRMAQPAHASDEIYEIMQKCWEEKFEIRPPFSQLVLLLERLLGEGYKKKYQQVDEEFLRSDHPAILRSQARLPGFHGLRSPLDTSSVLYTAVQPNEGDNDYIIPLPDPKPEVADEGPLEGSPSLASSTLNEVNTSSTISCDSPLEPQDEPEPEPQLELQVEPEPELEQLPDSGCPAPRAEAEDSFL

Row | Structure (SMILES) | IC50 [1] [nM] | IC50 [2] [nM]
1 | C[C@H](Nc1cnc2cn(C3CC3)nc2n1)c1cc(NC(=O)c2cnc(C(F)(F)F)s2)ccc1F [Compound 399, (S)-N-(3-(1-((2-cyclopropyl-2H-pyrazolo[3,4-b]pyrazin-6-yl)amino)ethyl)-4-fluorophenyl)-2-(trifluoromethyl)thiazole-5-carboxamide] | < 300 | < 300
2 | CCn1cc2ncc(N[C@@H](C)c3cccc(NC(=O)c4cnc(CN5CC6(COC6)C5)c(F)c4)c3)nc2n1 [Compound 500, (S)-6-((2-oxa-6-azaspiro[3.3]heptan-6-yl)methyl)-N-(3-(1-((2-ethyl-2H-pyrazolo[3,4-b]pyrazin-6-yl)amino)ethyl)phenyl)-5-fluoronicotinamide] | ≥ 1000 | ≥ 1000
3 | CCn1cc2ncc(N[C@@H](C)c3cc(NC(=O)c4ccc(N5CCCC5)nc4)ccc3F)nc2n1 [Compound 320, (S)-N-(3-(1-((2-ethyl-2H-pyrazolo[3,4-b]pyrazin-6-yl)amino)ethyl)-4-fluorophenyl)-6-(pyrrolidin-1-yl)nicotinamide] | < 300 | < 300
4 | Cc1cc(C(=O)Nc2cccc([C@H](C)Nc3cnc4cnn(C)c4n3)c2)cnc1F [Compound 192, (S)-6-fluoro-5-methyl-N-(3-(1-((1-methyl-1H-pyrazolo[3,4-b]pyrazin-6-yl)amino)ethyl)phenyl)nicotinamide] | < 300 | < 300
5 | CCn1cc2ncc(N[C@@H](C)c3cccc(NC(=O)c4ccc(NC)nc4)c3)nc2n1 [Compound 393, (S)-N-(3-(1-((2-ethyl-2H-pyrazolo[3,4-b]pyrazin-6-yl)amino)ethyl)phenyl)-6-(methylamino)nicotinamide] | 300 to 1000 | ≥ 1000
6 | C[C@H](Nc1cnc2cnn(C)c2n1)c1cccc(NC(=O)c2ccc3ccn(C)c3c2)c1 [Compound 50, (S)-1-methyl-N-(3-(1-((1-methyl-1H-pyrazolo[3,4-b]pyrazin-6-yl)amino)ethyl)phenyl)-1H-indole-6-carboxamide] | < 300 | < 300
7 | CCn1cc2ncc(N[C@@H](C)c3cccc(NC(=O)c4cnc(Cl)c(C)c4)c3)nc2n1 [Compound 383, (S)-6-chloro-N-(3-(1-((2-ethyl-2H-pyrazolo[3,4-b]pyrazin-6-yl)amino)ethyl)phenyl)-5-methylnicotinamide] | < 300 | < 300
8 | C[C@H](Nc1cnc2cnn(C)c2n1)c1cccc(NC(=O)N2CCc3ccccc3C2)c1 [Compound 55, (S)-N-(3-(1-((1-methyl-1H-pyrazolo[3,4-b]pyrazin-6-yl)amino)ethyl)phenyl)-3,4-dihydroisoquinoline-2(1H)-carboxamide] | < 300 | < 300
9 | CCn1cc2ncc(N[C@@H](C)c3cccc(NC(=O)c4ccc(CN5CCN(C)CC5)cc4)c3)nc2n1 [Compound 376, (S)-N-(3-(1-((2-ethyl-2H-pyrazolo[3,4-b]pyrazin-6-yl)amino)ethyl)phenyl)-4-((4-methylpiperazin-1-yl)methyl) benzamide] | < 300 | < 300
10 | COC(=O)c1ccc(C(=O)Nc2cccc([C@H](C)Nc3cnc4cnn(C)c4n3)c2)cc1Br [Compound 197, methyl (S)-2-bromo-4-((3-(1-((1-methyl-1H-pyrazolo[3,4-b]pyrazin-6-yl)amino)ethyl)phenyl)carbamoyl)benzoate] | < 300 | < 300
11 | Cc1cncc(C(=O)Nc2cccc([C@H](C)Nc3cnc4cc(C(F)(F)F)ccc4n3)c2)c1 [Compound 35, (S)-5-methyl-N-(3-(1-((6-(trifluoromethyl)quinoxalin-2-yl)amino)ethyl)phenyl) nicotinamide] | < 300 | < 300
12 | CCn1cc2ncc(N[C@@H](C)c3cc(NC(=O)Cc4ccc(C)c(C)n4)ccc3C)nc2n1 [Compound 717, (S)-2-(5,6-dimethylpyridin-2-yl)-N-(3-(1-((2-ethyl-2H-pyrazolo[3,4-b]pyrazin-6-yl)amino)ethyl)-4-methylphenyl) acetamide] | < 300 | < 300
13 | CCn1cc2ncc(N[C@@H](C)c3cccc(NC(=O)c4cnc(-n5ccnc5)c(C)c4)c3)nc2n1 [Compound 334, (S)-N-(3-(1-((2-ethyl-2H-pyrazolo[3,4-b]pyrazin-6-yl)amino)ethyl)phenyl)-6-(1H-imidazol-1-yl)-5-methylnicotinamide] | < 300 | < 300
14 | CCn1cc2ncc(N[C@@H](C)c3cc(NC(=O)c4ccc(OC(F)(F)F)nc4)ccc3F)nc2n1 [Compound 303, (S)-N-(3-(1-((2-ethyl-2H-pyrazolo[3,4-b]pyrazin-6-yl)amino)ethyl)-4-fluorophenyl)-6-(trifluoromethoxy)nicotinamide] | < 300 | < 300
15 | Cc1cc(C(=O)Nc2cccc([C@H](C)Nc3cnc4cnn(C)c4n3)c2)ccc1C(=O)OCCN1CCOCC1 [Compound 264, 2-morpholinoethyl (S)-2-methyl-4-((3-(1-((1-methyl-1H-pyrazolo[3,4-b]pyrazin-6-yl)amino)ethyl)phenyl)carbamoyl) benzoate] | < 300 | < 300
16 | COc1cc(C(=O)Nc2cccc([C@H](C)Nc3cnc4cnn(C)c4n3)c2)cnc1Cl [Compound 249, (S)-6-chloro-5-methoxy-N-(3-(1-((1-methyl-1H-pyrazolo[3,4-b]pyrazin-6-yl)amino)ethyl)phenyl)nicotinamide] | < 300 | < 300
17 | CCOc1ccc(C(=O)Nc2cccc([C@H](C)Nc3cnc4[nH]nc(C)c4n3)c2)cn1 [Compound 537, (S)-6-ethoxy-N-(3-(1-((3-methyl-1H-pyrazolo[3,4-b]pyrazin-5-yl)amino)ethyl)phenyl)nicotinamide] | < 300 | < 300
18 | CCn1cc2ncc(N[C@@H](C)c3cc(NC(=O)Cc4cccc(C)c4)ccc3F)nc2n1 [Compound 634, (S)-N-(3-(1-((2-ethyl-2H-pyrazolo[3,4-b]pyrazin-6-yl)amino)ethyl)-4-fluorophenyl)-2-(m-tolyl)acetamide] | < 300 | < 300
19 | Cc1cc(C(=O)Nc2cccc([C@H](C)Nc3cnc4cnn(C)c4n3)c2)cnc1C(C)C [Compound 231, (S)-6-isopropyl-5-methyl-N-(3-(1-((1-methyl-1H-pyrazolo[3,4-6]pyrazin-6-yl)amino)ethyl)phenyl)nicotinamide] | < 300 | < 300
20 | Cc1cc(C(=O)Nc2cccc([C@H](C)Nc3cnc4cnn(C)c4n3)c2)ccc1CN1CCSCC1 [Compound 237, (S)-3-methyl-N-(3-(1-((1-methyl-1H-pyrazolo[3,4-b]pyrazin-6-yl)amino)ethyl)phenyl)-4-(thiomorpholinomethyl) benzamide] | < 300 | < 300
21 | CCn1cc2ncc(N[C@@H](C)c3cccc(NC(=O)c4ccc(N5CCOCC5)nc4)c3)nc2n1 [Compound 372, (S)-N-(3-(1-((2-ethyl-2H-pyrazolo[3,4-b]pyrazin-6-yl)amino)ethyl)phenyl)-6-morpholinonicotinamide] | 300 to 1000 | ≥ 1000
22 | CSc1ccc(C(=O)Nc2cccc([C@H](C)Nc3cnc4cnn(C)c4n3)c2)cc1 [Compound 219, (S)-N-(3-(1-((1-methyl-1H-pyrazolo[3,4-b]pyrazin-6-yl)amino)ethyl)phenyl)-4-(methylthio)benzamide] | < 300 | < 300
